# Test results published in PubChem BioAssay (NCI).
#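 How tested: cells in 96-well plates exposed to compound for 48 hours at five concentrations. Abbreviation: GI50, concentration required for 50% inhibition of growth. TGI marks complete inhibition of growth.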
# Columns and labels:
# Assay in all cases: inhibition of tumour cell growth, NCI panel, 48 h
# MALME-3M melanoma = system: MALME-3M melanoma
# UACC-257 melanoma = system: UACC-257 melanoma
# NCI-H23 lung = system: NCI-H23 lung
# NCI-H460 lung = system: NCI-H460 lung
# EKVX NSCLC = system: EKVX NSCLC
# A549 NSCLC = system: A549 NSCLC
# HCT-116 colon = system: HCT-116 colon
# SK-MEL-2 melanoma = system: SK-MEL-2 melanoma
# NCI-H226 lung = system: NCI-H226 lung
# COLO 205 colon = system: COLO 205 colon
# SNB-19 CNS = system: SNB-19 CNS
# HCC-2998 colon = system: HCC-2998 colon
# SNB-75 CNS = system: SNB-75 CNS
# PC-3 prostate = system: PC-3 prostate
# UO-31 renal = system: UO-31 renal
# DU-145 prostate = system: DU-145 prostate
# NCI-H522 lung = system: NCI-H522 lung
# MOLT-4 leukemia = system: MOLT-4 leukemia
# T-47D breast = system: T-47D breast
# HCT-15 colon = system: HCT-15 colon
# UACC-62 melanoma = system: UACC-62 melanoma
# OVCAR-3 ovarian = system: OVCAR-3 ovarian
# SW-620 colon = system: SW-620 colon
# SR leukemia = system: SR leukemia
# LOX IMVI melanoma = system: LOX IMVI melanoma
# HT29 colon = system: HT29 colon
# RPMI-8226 leukemia = system: RPMI-8226 leukemia
# CCRF-CEM leukemia = system: CCRF-CEM leukemia
# BT-549 breast = system: BT-549 breast
# SK-OV-3 ovarian = system: SK-OV-3 ovarian
# OVCAR-4 ovarian = system: OVCAR-4 ovarian
# ACHN renal = system: ACHN renal
# 786-0 renal = system: 786-0 renal
# HOP-92 NSCLC = system: HOP-92 NSCLC
# SF-295 CNS = system: SF-295 CNS
# CAKI-1 renal = system: CAKI-1 renal
# KM12 colon = system: KM12 colon
# U251 CNS = system: U251 CNS
# OVCAR-5 ovarian = system: OVCAR-5 ovarian
# TK-10 renal = system: TK-10 renal
# A498 renal = system: A498 renal
# IGROV1 ovarian = system: IGROV1 ovarian
# MDA-MB-231 breast = system: MDA-MB-231 breast
# MCF7 breast = system: MCF7 breast
# SF-268 CNS = system: SF-268 CNS
# OVCAR-8 ovarian = system: OVCAR-8 ovarian
# K-562 leukemia = system: K-562 leukemia
# SK-MEL-28 melanoma = system: SK-MEL-28 melanoma
# HOP-62 NSCLC = system: HOP-62 NSCLC
# SK-MEL-5 melanoma = system: SK-MEL-5 melanoma
# SN12C renal = system: SN12C renal
smiles,measurement,setting,value
CC(=O)Nc1cccc(Nc2nccc(N[C@@H](C)c3ccccc3)n2)c1,GI50,MALME-3M melanoma,102 nM
same,TGI,MALME-3M melanoma,> 10 µM
same,GI50,UACC-257 melanoma,908 nM
same,TGI,UACC-257 melanoma,> 10 µM
same,GI50,NCI-H23 lung,239 nM
same,TGI,NCI-H23 lung,> 10 µM
same,GI50,NCI-H460 lung,246 nM
same,TGI,NCI-H460 lung,> 10 µM
same,GI50,EKVX NSCLC,363 nM
same,TGI,EKVX NSCLC,> 10 µM
same,GI50,A549 NSCLC,418 nM
same,TGI,A549 NSCLC,> 10 µM
same,GI50,HCT-116 colon,276 nM
same,TGI,HCT-116 colon,> 10 µM
same,GI50,SK-MEL-2 melanoma,180 nM
same,TGI,SK-MEL-2 melanoma,> 10 µM
same,GI50,NCI-H226 lung,1000 nM
same,TGI,NCI-H226 lung,> 10 µM
same,GI50,COLO 205 colon,262 nM
same,TGI,COLO 205 colon,1080 nM
same,GI50,SNB-19 CNS,335 nM
same,TGI,SNB-19 CNS,> 10 µM
same,GI50,HCC-2998 colon,423 nM
same,TGI,HCC-2998 colon,> 10 µM
same,GI50,SNB-75 CNS,119 nM
same,TGI,SNB-75 CNS,> 10 µM
same,GI50,PC-3 prostate,319 nM
same,TGI,PC-3 prostate,> 10 µM
same,GI50,UO-31 renal,372 nM
same,TGI,UO-31 renal,> 10 µM
same,GI50,DU-145 prostate,383 nM
same,TGI,DU-145 prostate,> 10 µM
same,GI50,NCI-H522 lung,129 nM
same,TGI,NCI-H522 lung,1240 nM
same,GI50,MOLT-4 leukemia,327 nM
same,TGI,MOLT-4 leukemia,> 10 µM
same,GI50,T-47D breast,331 nM
same,TGI,T-47D breast,> 10 µM
same,GI50,HCT-15 colon,121 nM
same,TGI,HCT-15 colon,> 10 µM
same,GI50,UACC-62 melanoma,126 nM
same,TGI,UACC-62 melanoma,> 10 µM
same,GI50,OVCAR-3 ovarian,118 nM
same,TGI,OVCAR-3 ovarian,> 10 µM
same,GI50,SW-620 colon,194 nM
same,TGI,SW-620 colon,> 10 µM
same,GI50,SR leukemia,45.3 nM
same,TGI,SR leukemia,> 10 µM
same,GI50,LOX IMVI melanoma,390 nM
same,TGI,LOX IMVI melanoma,> 10 µM
same,GI50,HT29 colon,194 nM
same,TGI,HT29 colon,> 10 µM
same,GI50,RPMI-8226 leukemia,293 nM
same,TGI,RPMI-8226 leukemia,> 10 µM
same,GI50,CCRF-CEM leukemia,233 nM
same,TGI,CCRF-CEM leukemia,> 10 µM
same,GI50,BT-549 breast,442 nM
same,TGI,BT-549 breast,> 10 µM
same,GI50,SK-OV-3 ovarian,675 nM
same,TGI,SK-OV-3 ovarian,> 10 µM
same,GI50,OVCAR-4 ovarian,1020 nM
same,TGI,OVCAR-4 ovarian,> 10 µM
same,GI50,ACHN renal,509 nM
same,TGI,ACHN renal,> 10 µM
same,GI50,786-0 renal,602 nM
same,TGI,786-0 renal,> 10 µM
same,GI50,HOP-92 NSCLC,793 nM
same,TGI,HOP-92 NSCLC,> 10 µM
same,GI50,SF-295 CNS,110 nM
same,TGI,SF-295 CNS,522 nM
same,GI50,CAKI-1 renal,108 nM
same,TGI,CAKI-1 renal,> 10 µM
same,GI50,KM12 colon,104 nM
same,TGI,KM12 colon,> 10 µM
same,GI50,U251 CNS,289 nM
same,TGI,U251 CNS,> 10 µM
same,GI50,OVCAR-5 ovarian,409 nM
same,TGI,OVCAR-5 ovarian,> 10 µM
same,GI50,TK-10 renal,760 nM
same,TGI,TK-10 renal,> 10 µM
same,TGI,A498 renal,> 10 µM
same,GI50,IGROV1 ovarian,370 nM
same,TGI,IGROV1 ovarian,> 10 µM
same,GI50,MDA-MB-231 breast,416 nM
same,TGI,MDA-MB-231 breast,> 10 µM
same,GI50,MCF7 breast,171 nM
same,TGI,MCF7 breast,> 10 µM
same,GI50,SF-268 CNS,990 nM
same,TGI,SF-268 CNS,> 10 µM
same,GI50,OVCAR-8 ovarian,363 nM
same,TGI,OVCAR-8 ovarian,> 10 µM
same,GI50,K-562 leukemia,49.8 nM
same,TGI,K-562 leukemia,> 10 µM
same,GI50,SK-MEL-28 melanoma,703 nM
same,TGI,SK-MEL-28 melanoma,> 10 µM
same,GI50,HOP-62 NSCLC,345 nM
same,TGI,HOP-62 NSCLC,> 10 µM
same,GI50,SK-MEL-5 melanoma,125 nM
same,TGI,SK-MEL-5 melanoma,481 nM
same,GI50,SN12C renal,559 nM
same,TGI,SN12C renal,> 10 µM
